Earlier results on two molecules are cited in patent US9744299B2, “Data processing device for an anesthesia device” (Dräger Medical GmbH, priority 2012, dated 2017).

Like-named read-outs stand apart in the source and are kept apart here.

The test system of data set [1] is patients. The settings on record: steepness of the rise of the response surface; property of the drug.
Data set [2] concerns patients. Particulars: effect-site concentration, 50% of patients tolerate "Shake and Shout".

As to `CC(C)c1cccc(C(C)C)c1O` [Propofol, propofol], in data set [1], the “h (Steepness)” value is recorded as 3.46. Besides, the C50hyp in data set [2] (C50Prop) was 2.99 µg/mL. In the case of `FCOC(C(F)(F)F)C(F)(F)F` [sevoflurane], the C50hyp in data set [2] (C50Vol) is on record as 1.47 vol. %.
